Results on seven molecules are retold here after patent US4845109A, “Alkoxy-and phenoxy alkyl esters of 2,6-dimethyl-4-(2-difluoromethoxyphenyl)-1,4-dihydropyridine-3,5-carboxy lic acid” (priority 1988, dated 1989).

Series [1] relates to arterial pressure. Briefly: Hypotensive activity in narcotized rats: reduction of arterial pressure. The series is classed as in vivo. Conditions: Rattus norvegicus; narcotized rats (urethane); read-out: ED30 (average dose that reduces the arterial pressure by 30%). An excerpt:
(§1) Average doses of the compounds under study that
(§2) reduce the arterial pressure in narcotized animals by 30%

Series [2] can be described thus: in vivo. The following applies: mouse, ip.
From the text: Acute toxicity of the compounds involved compared
with the known drugs tested on albino mice
(intraperitoneal administration)
For series [3], the system named is arterial pressure. Briefly: Acute experiments on narcotized cats: reduction of arterial pressure (intravenous). The series is classed as in vivo. The following applies: for ED30: Felis catus, read-out: ED30 (average dose that reduces the arterial pressure by 30%). Here is the method:
In acute experiments on cats narcotized with glucochloralose and urethane (90 and 200 mg/kg, respectively, administered intraperitoneally), there were recorded arterial pressure from the common carotid artery, respiration and an ECG with standard lead II. The compounds under study were administered intravenously as a dimethylacetamide solution.
as §1, §2

Series [4] relates to systolic arterial pressure. Briefly: Hypotensive effect in spontaneously hypertensive rats (SHR), oral. The series is classed as in vivo. The following applies: for Hypotensive effect compared with Niphedipin / Hypotensive potency: 3 and 10 mg/kg.
The subject of series [5] is coronary artery. Put plainly: Blood circulation rate in coronary artery of narcotized dogs. Format: in vivo. The following applies: intravenous.
Series [6] relates to femoral artery. Briefly: Blood circulation rate in femoral artery of narcotized dogs. The series is classed as in vivo. The following applies: intravenous.
The subject of series [7] is carotid artery. Briefly: Blood circulation rate in carotid artery of narcotized dogs. The series is classed as in vivo. The following applies: intravenous.
The test system of series [8] is vertebral artery. Put plainly: Blood circulation rate in vertebral artery of narcotized dogs. The series is classed as in vivo. Conditions: intravenous.
Series [9] concerns cerebral vessels. Conditions: background art; cited from earlier work.
Series [10] concerns arteries supplying blood to the heart and brain. Put plainly: Systolic arterial pressure and blood circulation in arteries of heart and brain of narcotized dogs. The series is classed as in vivo. The following applies: intravenous.
The conditions of series [11]: background art, occasionally; cited from earlier work.

What is called LD50 is the dose at which mortality reaches 50%.

`CC1=C(C(=O)OCCOc2ccccc2)C(c2ccccc2OC(F)F)C(C(=O)OCCOc2ccccc2)=C(C)N1` [R = C2 H4 OC6 H5, 2,6-dimethyl-3,5-bis-(2phenoxyethoxycarbonyl)-4-(2difluoromethoxyphenyl)-1,4-dihydropyridine]: the ED30 in series [1] was 0.03 mg/kg. The molecule also showed an LD50 in [2] of 790 mg/kg. In [3], the “Persistence of hypotensive effect” value is recorded as 7 min and the ED30 was found to be 0.02 mg/kg. In series [4], the “Hypotensive effect compared with Niphedipin” value was “does not differ substantially” and the Hypotensive potency result is recorded as “most markedly pronounced hypotensive potency”.

Take `COC(=O)C1=C(C)NC(C)=C(C(=O)OCCN(C)Cc2ccccc2)C1c1cccc([N+](=O)[O-])c1.Cl` (stereo not drawn) [Nicardipin, 2,6-dimethyl-3-methoxy-carbonyl-4-(3-nitrophenyl)-5-[2(N-benzyl-N-methylamino)ethoxycarbonyl]-1,4-dihydropyridine hydrochloride, reference compound]: in series [5] (0.001 mg/kg), the “Blood circulation rate in coronary artery, percentage increase” value came out at 12% and the “Blood circulation rate in coronary artery, persistence” value came out at 5 min. Besides, in series [5] (0.002 mg/kg), the “Blood circulation rate in coronary artery, percentage increase” value is 30% and the “Blood circulation rate in coronary artery, persistence” value was 12 min. Also, in [6] (0.001 mg/kg), the “Blood circulation rate in femoral artery, percentage increase” value was found to be 10% and the “Blood circulation rate in femoral artery, persistence” value worked out at 5 min. Moreover, in series [6] (0.002 mg/kg), the “Blood circulation rate in femoral artery, percentage increase” value worked out at 26% and the “Blood circulation rate in femoral artery, persistence” value amounted to 10 min. Besides, the LD50 in series [2] came to 225 mg/kg. Besides, in series [3], the “Persistence of hypotensive effect” value is given as 8 min and the ED30 came out at 0.025 mg/kg. Further, in [7] (0.001 mg/kg), the “Blood circulation rate in carotid artery, percentage increase” value is reported as 14% and the “Blood circulation rate in carotid artery, persistence” value was determined as 6 min. In addition, in [7] (0.002 mg/kg), the “Blood circulation rate in carotid artery, percentage increase” value was 60% and the “Blood circulation rate in carotid artery, persistence” value turned out to be 12 min. In [8] (0.001 mg/kg), the “Blood circulation rate in vertebral artery, percentage increase” value is listed as 14% and the “Blood circulation rate in vertebral artery, persistence” value is on record as 6 min. For the same molecule, in series [8] (0.002 mg/kg), the “Blood circulation rate in vertebral artery, percentage increase” value worked out at 40% and the “Blood circulation rate in vertebral artery, persistence” value is on record as 20 min. Moreover, in series [9], the Activity entry is recorded as “inadequate activity” and the Vasodilation activity result is recorded as “vasodilation activity preponderantly towards cerebral vessels”.

In series [2], `COCC(C)OC(=O)C1=C(C)NC(C)=C(C(=O)OC(C)COC)C1c1ccccc1OC(F)F` (stereo not drawn) [R = CH(CH3)CH2 OCH3, 2,6-dimethyl-3,5-bis-[(1-methyl-2-methoxy)-ethoxycarbonyl]-4-(2-difluoromethoxyphenyl)-1,4-dihydropyridine] registered an LD50 of 2500 mg/kg. Also, in series [3], the “Persistence of hypotensive effect” value stood at 10 min and the ED30 stood at 0.038 mg/kg.

Take `COCCOC(=O)C1=C(C)NC(C)=C(C(=O)OCCOC)C1c1ccccc1OC(F)F` [R = C2 H4 OCH3, 2,6-dimethyl-3,5-bis-(2-methoxyethoxycarbonyl)-4-(2-difluoromethoxyphenyl)-1,4-dihydropyridine]: the ED30 in series [1] amounted to 0.04 mg/kg; in [3] it was 0.045 mg/kg. The molecule also displayed an LD50 in series [2] of 1130 mg/kg. Further, in [3], the “Persistence of hypotensive effect” value is on record as 3 min.

Consider `CCOCCOC(=O)C1=C(C)NC(C)=C(C(=O)OCCOCC)C1c1ccccc1OC(F)F` [R = C2 H4 OC2 H5, 2,6-dimethyl-3,5-bis-(2-ethoxyethoxycarbonyl)-4-(2-difluoromethoxyphenyl)-1,4-dihydropyridine], for which the ED30 in series [1] amounted to 0.018 mg/kg. Also, the LD50 in [2] was 2200 mg/kg. In addition, in series [3], the “Persistence of hypotensive effect” value turned out to be 6 min and the ED30 was 0.01 mg/kg. In [4], the Tachycardia entry was “not causative of tachycardia”, the “Hypotensive effect compared with Niphedipin” value is listed as “does not differ substantially” and the Hypotensive potency result was “most markedly pronounced hypotensive potency”.

Turning to `CCCOCCOC(=O)C1=C(C)NC(C)=C(C(=O)OCCOCCC)C1c1ccccc1OC(F)F` [R = C2 H4 OC3 H7, 2,6-dimethyl-3,5-bis-(2-propoxyethoxycarbonyl)-4-(2-difluoromethoxyphenyl)-1,4-dihydropyridine], the “Intensity and duration of effect on blood circulation rate compared with Nicardipin” value in [10] is “much more potent”. Further, the ED30 in [1] was determined as 0.008 mg/kg; in [3], 0.0045 mg/kg. Moreover, the “Blood circulation rate in coronary artery, percentage increase” value in series [5] (0.0005 mg/kg) came to 10%; in series [5] (0.001 mg/kg), 30%; in series [5] (0.002 mg/kg), 50%. In addition, the “Blood circulation rate in coronary artery, persistence” value in series [5] (0.0005 mg/kg) stood at 5 min; in series [5] (0.001 mg/kg) it was 8 min; in [5] (0.002 mg/kg), 12 min. The “Blood circulation rate in femoral artery, percentage increase” value was determined as 0% in series [6] (0.0005 mg/kg), 10% in series [6] (0.001 mg/kg) and 25% in [6] (0.002 mg/kg). Besides, the entries for the “Blood circulation rate in femoral artery, persistence” value in [6] (0.001 mg/kg) and in series [6] (0.002 mg/kg) were 8 min and 10 min, respectively. In series [2], this molecule had an LD50 of 450 mg/kg. Also, in series [3], the “Persistence of hypotensive effect” value is recorded as 7 min. The “Blood circulation rate in carotid artery, percentage increase” value in series [7] (0.0005 mg/kg) is 17%; in [7] (0.001 mg/kg), 60%; in series [7] (0.002 mg/kg), 100%. Moreover, the “Blood circulation rate in carotid artery, persistence” value in [7] (0.0005 mg/kg) amounted to 5 min; in series [7] (0.001 mg/kg), 15 min; in [7] (0.002 mg/kg) it was 20 min. Further, the “Hypotensive effect compared with Niphedipin” value in [4] is reported as “does not differ substantially”. Also, the Hypotensive potency entry in series [4] is “most markedly pronounced hypotensive potency”. In addition, the “Blood circulation rate in vertebral artery, percentage increase” value in [8] (0.0005 mg/kg) was 20%; in series [8] (0.001 mg/kg), 90%; in [8] (0.002 mg/kg) it was 110%. For the same molecule, the “Blood circulation rate in vertebral artery, persistence” value was 8 min in series [8] (0.0005 mg/kg), 18 min in series [8] (0.001 mg/kg) and 20 min in [8] (0.002 mg/kg).

As for `COC(=O)C1=C(C)NC(C)=C(C(=O)OC)C1c1ccccc1[N+](=O)[O-]` [Niphedipin, 2,6-dimethyl-3,5-dimethoxycarbonyl-4-(2-nitrophenyl)-1,4-dihydropyrine, reference compound], the Side effects result in series [11] was “dizziness and nausea”. Moreover, in series [3], the “Persistence of hypotensive effect” value stood at 6 min and the ED30 came to 0.02 mg/kg. In addition, the Tachycardia entry in [4] is recorded as “tachycardia”.
